What all share (assay type): cell-based
Assay [1] concerns the target HER2 (A775_G776insYVMA) expressing Ba/F3 stable cell line (Homo sapiens, UniProt P04626, DUP772-775, cells depend on it). Description: Cellular proliferation (Alamar Blue) assay, HER2 A775_G776insYVMA Ba/F3. The following applies: 72 hr, read-out: YVMA IC50. As for the experimental part:
• 1. EGFR(D770_N771insSVD) expressing Ba/F3 stable cell line • 2. EGFR (A767_dupASV) expressing Ba/F3 stable cell line • 3. A431 cells • 4. EGFR (H773insNPH) expressing Ba/F3 stable cell line • 5. HER2 (A775_G776insYVMA) expressing Ba/F3 stable cell line Assay Procedure: • 1. Seed cells at 5000 for A431 and 15,000 cells for Ba/F3 in 100 μL/well in complete media (for A431: DMEM with […] and for Ba/F3 cells: RPMI with 10% FBS) in 96-well tissue culture plate. Leave outer wells without cells for background measurements. Incubate at 37 degree Celsius in […] humidified incubator for 16-18 hours. • 2. Add 0.025 ml of 5× concentration compound dilution or DMSO control. Final compound concentration range is 10-0.0005 μM prepared in 3-fold serial dilutions. Incubate for 72 hr at 37 degree Celsius in […] humidified incubator. • 3. Add 0.0125 ml Alamar Blue™ reagent to each well with multi-channel pipette and tap gently on each side of the plate to mix. Incubate for 3 hours at 37 degree Celsius in 5% CO2 humidified incubator. • 4. […] Data analysis was performed using XLfit 5.5.0.5.
Background: Resazurin is reduced to fluorescent resorufin, in cell work by metabolically active cells.

The target in assay [2] is EGFR(D770_N771insSVD) expressing Ba/F3 stable cell line (Homo sapiens, UniProt P00533, DUP768-770, cells depend on it). Kind of assay: Cellular proliferation (Alamar Blue) assay, EGFR D770_N771insSVD Ba/F3. The following applies: 72 hr, read-out: D770 IC50. A digest of the protocol:
(§1)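 Alamar Blue read-out, 3 h at 37 °C, after 72 hr compound exposure of Ba/F3 transfectants (15,000 cells/well, RPMI + 10% FBS, plated 16-18 h earlier).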

Another assay relates to A431 cells. Description: Cellular proliferation (Alamar Blue) assay, A431.
Assay [3] addresses EGFR (A767_dupASV) expressing Ba/F3 stable cell line (Homo sapiens, UniProt P00533, DUP767-769, cells depend on it). Kind of assay: Cellular proliferation (Alamar Blue) assay, EGFR A767_dupASV Ba/F3. The conditions noted are these: 72 hr, read-out: A767 IC50. In a few lines: as §1
[4] abbreviates: Homo sapiens, A-431; A431 cells, Alamar Blue, 72 hr; read-out: A431 IC50.
The mark [5] stands for this setting: Homo sapiens, A-431; A431 cells, 72 hr, Alamar Blue; read-out: A431 IC50.

19 compounds from patent US12686673B2 (Blueprint Medicines Corporation, priority 2020, dated 2026) can be followed below.

Structures can show the parent of a compound that is named as a salt. Where two headings read alike, the source gives them in different places.

Sequence of EGFR (A767_dupASV) expressing Ba/F3 stable cell line (P00533 with tags, fused parts or gaps DUP767-769): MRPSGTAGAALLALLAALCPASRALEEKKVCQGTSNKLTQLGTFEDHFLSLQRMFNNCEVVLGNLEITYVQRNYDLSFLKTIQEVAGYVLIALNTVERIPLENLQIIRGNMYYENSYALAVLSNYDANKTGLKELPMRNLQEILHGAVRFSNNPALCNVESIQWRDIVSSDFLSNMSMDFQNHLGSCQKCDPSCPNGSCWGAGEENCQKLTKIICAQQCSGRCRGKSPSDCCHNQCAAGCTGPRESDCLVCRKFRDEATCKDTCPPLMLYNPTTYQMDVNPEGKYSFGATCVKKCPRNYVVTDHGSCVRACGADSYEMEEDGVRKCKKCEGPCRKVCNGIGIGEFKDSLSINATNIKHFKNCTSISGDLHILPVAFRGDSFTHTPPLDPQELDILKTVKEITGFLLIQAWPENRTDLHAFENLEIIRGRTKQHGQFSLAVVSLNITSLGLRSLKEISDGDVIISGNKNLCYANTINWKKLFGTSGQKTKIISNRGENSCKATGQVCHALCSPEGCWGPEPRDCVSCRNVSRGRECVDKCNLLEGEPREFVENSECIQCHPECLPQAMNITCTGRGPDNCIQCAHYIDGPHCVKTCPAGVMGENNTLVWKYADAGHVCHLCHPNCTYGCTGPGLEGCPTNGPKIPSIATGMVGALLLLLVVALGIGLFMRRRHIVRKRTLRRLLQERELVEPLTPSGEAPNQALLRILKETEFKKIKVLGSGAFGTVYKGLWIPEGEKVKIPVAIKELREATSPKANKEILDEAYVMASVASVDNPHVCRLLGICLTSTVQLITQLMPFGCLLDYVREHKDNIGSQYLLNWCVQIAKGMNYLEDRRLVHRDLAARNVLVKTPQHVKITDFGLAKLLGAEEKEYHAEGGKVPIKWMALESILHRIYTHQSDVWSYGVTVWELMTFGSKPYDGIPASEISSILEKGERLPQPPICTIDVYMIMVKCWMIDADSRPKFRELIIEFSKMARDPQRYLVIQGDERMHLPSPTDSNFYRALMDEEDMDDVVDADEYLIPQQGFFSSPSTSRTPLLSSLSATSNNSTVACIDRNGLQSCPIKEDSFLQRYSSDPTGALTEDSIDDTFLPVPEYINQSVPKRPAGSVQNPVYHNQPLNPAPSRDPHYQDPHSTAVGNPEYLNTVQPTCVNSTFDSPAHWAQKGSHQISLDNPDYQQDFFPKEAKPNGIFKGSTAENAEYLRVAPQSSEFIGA
Sequence of EGFR(D770_N771insSVD) expressing Ba/F3 stable cell line (P00533 with tags, fused parts or gaps DUP768-770): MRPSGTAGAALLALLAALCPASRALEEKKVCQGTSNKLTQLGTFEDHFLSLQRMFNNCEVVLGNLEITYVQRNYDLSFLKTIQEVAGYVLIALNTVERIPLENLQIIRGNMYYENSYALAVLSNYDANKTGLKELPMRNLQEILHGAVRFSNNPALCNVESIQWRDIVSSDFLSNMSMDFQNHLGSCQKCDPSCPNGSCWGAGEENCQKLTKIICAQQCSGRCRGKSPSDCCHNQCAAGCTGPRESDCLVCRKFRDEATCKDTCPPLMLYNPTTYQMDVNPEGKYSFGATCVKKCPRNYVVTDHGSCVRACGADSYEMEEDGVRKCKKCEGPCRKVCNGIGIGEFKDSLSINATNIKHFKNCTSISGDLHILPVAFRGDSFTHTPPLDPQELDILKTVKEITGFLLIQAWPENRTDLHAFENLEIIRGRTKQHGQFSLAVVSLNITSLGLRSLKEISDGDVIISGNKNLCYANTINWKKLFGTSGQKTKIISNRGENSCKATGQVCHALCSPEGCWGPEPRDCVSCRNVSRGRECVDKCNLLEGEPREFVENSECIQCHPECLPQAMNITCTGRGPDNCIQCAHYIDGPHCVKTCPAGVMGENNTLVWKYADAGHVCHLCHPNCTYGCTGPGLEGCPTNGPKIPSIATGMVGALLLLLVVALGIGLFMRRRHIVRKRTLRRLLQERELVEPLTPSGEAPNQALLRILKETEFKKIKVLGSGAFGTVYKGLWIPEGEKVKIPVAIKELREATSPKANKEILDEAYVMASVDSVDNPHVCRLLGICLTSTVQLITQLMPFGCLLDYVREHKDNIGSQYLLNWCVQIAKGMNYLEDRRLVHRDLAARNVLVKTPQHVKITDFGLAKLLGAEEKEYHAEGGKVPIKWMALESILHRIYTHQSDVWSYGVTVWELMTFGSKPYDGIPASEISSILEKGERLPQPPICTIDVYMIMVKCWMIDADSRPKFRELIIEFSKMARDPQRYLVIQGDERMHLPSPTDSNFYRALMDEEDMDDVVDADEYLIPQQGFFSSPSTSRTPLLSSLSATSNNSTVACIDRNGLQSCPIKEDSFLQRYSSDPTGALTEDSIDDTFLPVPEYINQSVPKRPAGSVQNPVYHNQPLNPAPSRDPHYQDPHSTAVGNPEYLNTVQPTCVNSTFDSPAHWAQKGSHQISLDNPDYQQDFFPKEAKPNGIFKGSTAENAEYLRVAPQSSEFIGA
Sequence of HER2 (A775_G776insYVMA) expressing Ba/F3 stable cell line (P04626 with tags, fused parts or gaps DUP772-775): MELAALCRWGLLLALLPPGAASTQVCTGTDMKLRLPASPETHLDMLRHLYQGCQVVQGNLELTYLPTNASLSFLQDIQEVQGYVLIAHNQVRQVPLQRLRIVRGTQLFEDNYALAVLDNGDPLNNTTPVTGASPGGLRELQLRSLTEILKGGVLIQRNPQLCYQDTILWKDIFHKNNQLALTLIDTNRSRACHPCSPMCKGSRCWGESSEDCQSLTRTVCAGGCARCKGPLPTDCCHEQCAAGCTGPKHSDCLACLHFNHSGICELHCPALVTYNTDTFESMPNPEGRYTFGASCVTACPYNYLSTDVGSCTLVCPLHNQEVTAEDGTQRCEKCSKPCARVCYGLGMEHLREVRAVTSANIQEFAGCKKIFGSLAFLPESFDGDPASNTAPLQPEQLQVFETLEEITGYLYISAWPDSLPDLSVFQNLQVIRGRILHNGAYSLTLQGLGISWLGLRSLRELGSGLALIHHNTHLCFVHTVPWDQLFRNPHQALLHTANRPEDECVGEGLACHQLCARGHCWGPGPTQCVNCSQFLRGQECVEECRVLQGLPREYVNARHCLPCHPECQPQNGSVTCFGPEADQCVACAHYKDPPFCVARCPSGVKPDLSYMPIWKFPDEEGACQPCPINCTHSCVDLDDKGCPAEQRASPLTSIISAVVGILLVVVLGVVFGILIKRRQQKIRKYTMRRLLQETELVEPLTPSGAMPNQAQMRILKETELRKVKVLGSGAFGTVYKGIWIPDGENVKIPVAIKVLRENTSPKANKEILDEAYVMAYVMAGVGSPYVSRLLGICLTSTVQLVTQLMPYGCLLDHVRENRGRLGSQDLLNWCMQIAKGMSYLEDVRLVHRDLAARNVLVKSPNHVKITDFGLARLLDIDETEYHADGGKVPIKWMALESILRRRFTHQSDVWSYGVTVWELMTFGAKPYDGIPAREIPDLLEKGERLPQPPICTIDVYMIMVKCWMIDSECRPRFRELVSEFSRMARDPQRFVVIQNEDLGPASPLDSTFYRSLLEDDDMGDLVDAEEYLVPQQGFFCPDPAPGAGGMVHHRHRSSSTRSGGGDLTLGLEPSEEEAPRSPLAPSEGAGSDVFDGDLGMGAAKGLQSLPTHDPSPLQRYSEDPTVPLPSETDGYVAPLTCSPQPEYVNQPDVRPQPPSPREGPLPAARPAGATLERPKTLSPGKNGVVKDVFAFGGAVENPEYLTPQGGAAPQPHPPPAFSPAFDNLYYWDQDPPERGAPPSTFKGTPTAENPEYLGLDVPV

On to `C=CC(=O)Nc1ccc(F)c(Nc2nc(Nc3cnn(C)c3)ncc2-c2cccc(NC(C)=O)c2)c1` [Compound 59, N-(3-((5-(3-acetamidophenyl)-2-((1-methyl-1H-pyrazol-4-yl)amino)pyrimidin-4-yl)amino)-4-fluorophenyl)acrylamide], for which the GI50 in assay [1] is at least 10000 nM; in assay [2], above 10000 nM; in assay [3], above 10000 nM. Moreover, in the assay with A431 cells (setting [4]), the half-maximal inhibitory concentration (IC50) – broadly, the concentration needed to halve the response being measured – was above 10000 nM.
Consider `CN(C)C/C=C/C(=O)Nc1ccc(F)c(-c2nc(Nc3cnn(C)c3)ncc2Cl)c1` [Compound 160, (E)-N-(3-(5-chloro-2-((1-methyl-1H-pyrazol-4-yl)amino)pyrimidin-4-yl)-4-fluorophenyl)-4-(dimethylamino)but-2-enamide], for which the GI50 in assay [1], in assay [2] and in assay [3] was above 10000 nM each time. Besides, the IC50 in the assay on A431 cells (setting [4]) is above 10000 nM.
In the case of `C=CC(=O)Nc1ccc(F)c(Nc2nc(Nc3cnn(C)c3)ncc2-c2ccc(C#N)cc2)c1` [Compound 62, N-(3-((5-(4-cyanophenyl)-2-((1-methyl-1H-pyrazol-4-yl)amino)pyrimidin-4-yl)amino)-4-fluorophenyl)acrylamide], the figures for the GI50 in assay [1], in assay [2] and in assay [3] were 2590 nM, 323 nM and 307 nM, respectively. Besides, the IC50 with A431 cells (setting [4]) is above 10000 nM.
As for `C=CC(=O)Nc1ccc(F)c(Nc2nc(Nc3cnn(C)c3)ncc2-c2cccc(C(=O)NC)c2)c1` [Compound 60, 3-(4-((5-acrylamido-2-fluorophenyl)amino)-2-((1-methyl-1H-pyrazol-4-yl)amino)pyrimidin-5-yl)-N-methylbenzamide], the values for the GI50 in assay [1], in assay [2] and in assay [3] were 6580 nM, 7940 nM and 7650 nM, respectively. Besides, the IC50 in the assay on A431 cells (setting [4]) was above 10000 nM.
The like results for `C=CC(=O)Nc1ccc(Cl)c(Nc2nc(Nc3cnn(C)c3)ncc2Cl)c1` [Compound 8, N-(4-chloro-3-((5-chloro-2-((1-methyl-1H-pyrazol-4-yl)amino)pyrimidin-4-yl)amino)phenyl)acrylamide] were, in that order, 4990 nM, 7450 nM, 7580 nM and 8580 nM.
Regarding `C=CC(=O)Nc1cc(Nc2nc(Nc3cnn(C)c3)ncc2-c2ccc(C(F)(F)F)cc2)ccc1F` [Compound 238, N-(2-fluoro-5-((2-((1-methyl-1H-pyrazol-4-yl)amino)-5-(4-(trifluoromethyl)phenyl)pyrimidin-4-yl)amino)phenyl)acrylamide], the GI50 in assay [1] came out at 3010 nM; in assay [2], 312 nM; in assay [3], 90 nM. For the same compound, the 50% inhibitory concentration (IC50) with A431 cells (setting [5]) amounted to 617 nM.
On to `CN(C)C/C=C/C(=O)Nc1ccc(F)c(Nc2nc(Nc3cnn(C)c3)ncc2C#Cc2ccccc2)c1` [Compound 162, (E)-4-(dimethylamino)-N-(4-fluoro-3-((2-((1-methyl-1H-pyrazol-4-yl)amino)-5-(phenylethynyl)pyrimidin-4-yl)amino)phenyl)but-2-enamide], for which the GI50 was found to be 1880 nM in assay [1], 1850 nM in assay [2] and 656 nM in assay [3]. The IC50 in the assay on A431 cells (setting [4]) is 2850 nM.
The like results for `C=CC(=O)Nc1ccc(F)c(Nc2nc(Nc3cnn(C)c3)ncc2-c2cccnc2OC)c1` [Compound 79, N-(4-fluoro-3-((5-(2-methoxypyridin-3-yl)-2-((1-methyl-1H-pyrazol-4-yl)amino)pyrimidin-4-yl)amino)phenyl)acrylamide] were, in that order, 896 nM, 934 nM, 887 nM and above 10000 nM.
Consider `C=CC(=O)Nc1ccc(F)c(Nc2nc(Nc3ccn(C)n3)ncc2Cl)c1` [Compound 30, N-(3-((5-chloro-2-((1-methyl-1H-pyrazol-3-yl)amino)pyrimidin-4-yl)amino)-4-fluorophenyl)acrylamide], for which the values for the GI50 in assay [1], in assay [2] and in assay [3] were 2640 nM, above 10000 nM and 9630 nM, respectively. The IC50 in the assay with A431 cells (setting [4]) was above 10000 nM.
Turning to `C=CC(=O)Nc1ccc(F)c(Nc2nc(Nc3cnn(C)c3)ncc2-c2ccn3ccnc3c2)c1` [Compound 132, N-(4-fluoro-3-((5-(imidazo[1,2-a]pyridin-7-yl)-2-((1-methyl-1H-pyrazol-4-yl)amino)pyrimidin-4-yl)amino)phenyl)acrylamide], the GI50 is 151 nM in assay [1], 203 nM in assay [2] and 368 nM in assay [3]. For the same compound, in the assay with A431 cells (setting [4]), the IC50 was determined as 504 nM.
The like results for `CN(C)C/C=C/C(=O)Nc1ccc(F)c(Nc2nc(Nc3cnn(CCO)c3)ncc2Cl)c1` [Compound 16, (E)-N-(3-((5-chloro-2-((1-(2-hydroxyethyl)-1H-pyrazol-4-yl)amino)pyrimidin-4-yl)amino)-4-fluorophenyl)-4-(dimethylamino)but-2-enamide] were, in that order, 1700 nM, 9060 nM, 8840 nM and 9040 nM.
Turning to `CN(C)C/C=C/C(=O)Nc1cccc(Nc2nc(Nc3cnn(C)c3)ncc2CNc2ccccc2)c1` [Compound 17, (E)-4-(dimethylamino)-N-(3-((2-((1-methyl-1H-pyrazol-4-yl)amino)-5-((phenylamino)methyl)pyrimidin-4-yl)amino)phenyl)but-2-enamide], the results for the GI50 in assay [1], in assay [2] and in assay [3] were 1880 nM, 1530 nM and 1020 nM, respectively. For the same compound, the IC50 in the assay on A431 cells (setting [4]) stood at 7740 nM.
For the compound `C=CC(=O)Nc1ccc(F)c(Nc2nc(Nc3cnn(C)c3)ncc2-c2cccc(OC(F)(F)F)c2)c1` [Compound 96, N-(4-fluoro-3-((2-((1-methyl-1H-pyrazol-4-yl)amino)-5-(3-(trifluoromethoxy)phenyl)pyrimidin-4-yl)amino)phenyl)acrylamide trifluoroacetate], the GI50 in assay [1] was 7730 nM; in assay [2] it was 345 nM; in assay [3], 790 nM. In addition, the IC50 in the assay with A431 cells (setting [4]) was determined as 1080 nM.
As for `C#CC(=O)Nc1ccc(F)c(Nc2nc(Nc3cnn(C)c3)ncc2-c2ccc(C(F)(F)F)cc2)c1` [Compound 254, N-[4-fluoro-3-({2-[(1-methyl-1H-pyrazol-4-yl)amino]-5-[4-(trifluoromethyl)phenyl]pyrimidin-4-yl}amino)phenyl] prop-2-ynamide], the figures for the GI50 in assay [1], in assay [2] and in assay [3] were 8670 nM, 8460 nM and 9470 nM, respectively. Also, the IC50 with A431 cells (setting [5]) was determined as 1000 nM.
Consider `C=CC(=O)Nc1ccc(F)c(Nc2nc(Nc3cnn(C)c3)ncc2-c2ccc(OC)nc2)c1` [Compound 86, N-(4-fluoro-3-((5-(6-methoxypyridin-3-yl)-2-((1-methyl-1H-pyrazol-4-yl)amino)pyrimidin-4-yl)amino)phenyl)acrylamide], for which the GI50 in assay [1] was found to be 185 nM; in assay [2], 36 nM; in assay [3] it was 39 nM. In addition, in the assay on A431 cells (setting [4]), the IC50 was 49 nM.
The like results for `C=CC(=O)Nc1ccc(F)c(Nc2nc(Nc3cnn(C)c3)ncc2-c2ccc(N3CCOCC3)nc2)c1` [Compound 55, N-[4-fluoro-3-({2-[(1-methyl-1H-pyrazol-4-yl)amino]-5-[6-(morpholin-4-yl)pyridin-3-yl]pyrimidin-4-yl}amino)phenyl] prop-2-enamide] were, in that order, 1870 nM, 945 nM, 492 nM and above 10000 nM.
Turning to `C=CC(=O)Nc1ccc(F)c(Nc2nc(Nc3cnn(C4COC4)c3)ncc2-c2ccc(Br)cc2)c1` [Compound 205, N-(3-((5-(4-bromophenyl)-2-((1-(oxetan-3-yl)-1H-pyrazol-4-yl)amino)pyrimidin-4-yl)amino)-4-fluorophenyl)acrylamide], the GI50 in assay [1] was found to be 278 nM; in assay [2], 39 nM; in assay [3] it was 73 nM. For the same compound, the IC50 with A431 cells (setting [5]) came to 132 nM.
`C=CC(=O)Nc1ccc(F)c(Nc2nc(Nc3cnn(C)c3)ncc2-c2ccc(-c3ccccc3)cc2)c1` [Compound 127, N-(3-((5-([1,1′-biphenyl]-4-yl)-2-((1-methyl-1H-pyrazol-4-yl)amino)pyrimidin-4-yl)amino)-4-fluorophenyl)acrylamide]: the GI50 in assay [1] was determined as 5280 nM; in assay [2] it was 971 nM; in assay [3], 565 nM. In addition, the IC50 in the assay with A431 cells (setting [4]) amounted to 258 nM.
The corresponding values for `CC(NC(=O)c1cnc(Nc2cnn(C)c2)nc1Nc1cccc(NC(=O)/C=C/CN(C)C)c1)c1ccccc1` (stereo not shown) [Compound 35, (E)-4-((3-(4-(dimethylamino)but-2-enamido)phenyl)amino)-2-((1-methyl-1H-pyrazol-4-yl)amino)-N-(1-phenylethyl)pyrimidine-5-carboxamide] are above 10000 nM, above 10000 nM, above 10000 nM and above 10000 nM.
